pEC50: −log10 of the molar value. Where two headings read alike, the source gives them in different places. Where a SMILES comes first, the peptide text is derived from it. [ ]: non-standard residue; d: D form. The star is where a group is joined. dLys(Me3) = C[N+](C)(C)CCCC[C@@H](N)C(=O)O; NHCH2CH2OH = OCCN*; For = O=C*
Columns and labels:
[1] = tested on: human red blood cells (hRBCs); assay: Haemoglobin release from human red blood cells; assay type: cell-based
Procedure: Fresh human red blood cells (hRBCs) were centrifuged at 3500 rpm and washed with PBS buffer until the supernatant was clear. The hRBCs were then resuspended and diluted to a final concentration of 1% (v/v) in PBS and used immediately. 15 μL of serial dilution (2-fold) of peptides in DMSO or DMSO alone as a negative control were added to 1.5 mL of hRBCs in PBS. The resulting mixture was gently shaken to mix well and incubated at 37° C. for 1 hr, followed by centrifugation at 3500 rpm for 10 min using tabletop centrifuge. Aliquots (50 μL) of the supernatant (in triplicates) were transferred into a sterile 96-well plate containing 50 μL of H2O in each well. Release of hemoglobin was monitored at 415 nm using a microtiter plate reader. Percentage hemolysis was calculated using percentage hemolysis=100·(A415, peptide-A415,DMSO)/(A415, complete hemolysis-A415, DMSO), where complete hemolysis is achieved by mixing hRBCs with 1% TritonX-100.

[2] = tested on: human red blood cells (hRBCs); assay: K+ leakage from hRBCs (flame atomic emission); assay type: cell-based
Procedure: The rest of supernatant (1.2 mL) from each sample prepared as described in the hemoglobin leakage assay was transferred into a new sterile eppendorf tube and subject to the K+ concentration measurement using a flame-atomic emission spectrometer (λem=766.5 nm, Perkin Elmer Atomic absorption Spectrometer 3100, acetylene/air flame). Three readings were taken for each sample and averaged as final results. The fraction of K+ leakage from hRBCs was calculated as percentage K+ leaked=100·(I776.5,peptide−I776.5,DMSO)/(I776.5,complete lysis−I776.5,DMSO).

physchem = assay type: physicochemical; conditions: for solubility kinetic at 30 min: pH 7, aqueous with cosolvent or surfactant or cyclodextrin
Procedure: Peptide solubility in 10 mM HEPES buffer with 1% DMSO was measured by monitoring tryptophan absorbance. A concentrated (6.0-8.0 mM) peptide stock solution in DMSO was diluted 100 times (5 μL of the stock into 500 jtl of 10 mM HEPES buffer, pH 7.0). The mixture was sonicated for 30 mins and then subject to centrifugation (14,000 rpm, 10 mins) to remove possible precipitate. The supernatant (400 μL) was transferred to a quartz cuvette and the peptide concentration was determined by tryptophan absorbance at 280 nm (ε=22760 M−1 cm-1). The UV/Vis spectra of the supernatant can be seen in FIG. 1 and FIG. 5.

[3] = tested on: Staphylococcus aureus (ATCC 6538)
[4] = tested on: Bacillus subtilis (ATCC 663)
[5] = tested on: Streptococcus pyogenes (ATCC 19615)
[6] = Peptide binding onto membranes (Trp fluorescence); conditions: neutral POPC vesicles; in words
[7] = Peptide binding onto membranes (Trp fluorescence); conditions: negatively charged POPC/POPG vesicles; in words
[8] = Trp absorbance @ 280 nm; 10 mM PBS, pH 7.0, 1% DMSO; values taken from ref; cited from earlier work

SMILES	solubility kinetic at 30 min (physchem) [µM]	Minimum Inhibition Concentration S. Aureus ([3]; ATCC 6538) [µM]	Minimum Inhibition Concentration B. Subtilius ([4]; ATCC 663) [µM]	HC50 [1]	Toxicity HC50 ([1]; red cells of human) [µM]	KC50 [2]	Toxicity KC50 [2] [µM]	Minimum Inhibition Concentration S. Pyogenesis ([5]; ATCC 19615) [µM]	haemoglobin leakage from hRBCs [1]	further results
CC(C)C[C@@H](NC(=O)[C@H](C)NC(=O)CNC(=O)[C@@H](NC=O)C(C)C)C(=O)N[C@@H](C)C(=O)N[C@@H](C(=O)N[C@H](C(=O)N[C@@H](C(=O)N[C@@H](Cc1c[nH]c2ccccc12)C(=O)N[C@H](CC(C)C)C(=O)N[C@@H](Cc1c[nH]c2ccccc12)C(=O)N[C@H](CCCC[N+](C)(C)C)C(=O)N[C@@H](Cc1c[nH]c2ccccc12)C(=O)N[C@H](CC(C)C)C(=O)N[C@@H](Cc1c[nH]c2ccccc12)C(=O)NCCO)C(C)C)C(C)C)C(C)C [12MeK] (For-VGA[dL]A[dV]V[dV]W[dL]W[dLys(Me3)]W[dL]W-NHCH2CH2OH)										HC50 ([1]; Table 8): >10; KC50 ([2]; Table 8): 0.2
CC(C)C[C@@H](NC(=O)[C@H](C)NC(=O)CNC(=O)[C@@H](NC=O)C(C)C)C(=O)N[C@@H](C)C(=O)N[C@@H](C(=O)N[C@H](C(=O)N[C@@H](C(=O)N[C@@H](Cc1c[nH]c2ccccc12)C(=O)N[C@H](CCCC[N+](C)(C)C)C(=O)N[C@@H](Cc1c[nH]c2ccccc12)C(=O)N[C@H](CC(C)C)C(=O)N[C@@H](Cc1c[nH]c2ccccc12)C(=O)N[C@H](CC(C)C)C(=O)N[C@@H](Cc1c[nH]c2ccccc12)C(=O)NCCO)C(C)C)C(C)C)C(C)C [10M] (For-VGA[dL]A[dV]V[dV]W[dLys(Me3)]W[dL]W[dL]W-NHCH2CH2OH)	4.3	2.5	2.5	19	19	0.04	0.04	0.15		
CC(C)C[C@@H](NC(=O)[C@H](C)NC(=O)CNC(=O)[C@@H](NC=O)C(C)C)C(=O)N[C@@H](C)C(=O)N[C@@H](C(=O)N[C@H](C(=O)N[C@@H](C(=O)N[C@@H](Cc1c[nH]c2ccccc12)C(=O)N[C@H](CCCC[N+](C)(C)C)C(=O)N[C@@H](Cc1c[nH]c2ccccc12)C(=O)N[C@H](CCCC[N+](C)(C)C)C(=O)N[C@@H](Cc1c[nH]c2ccccc12)C(=O)N[C@H](CC(C)C)C(=O)N[C@@H](Cc1c[nH]c2ccccc12)C(=O)NCCO)C(C)C)C(C)C)C(C)C [10, 12M] (For-VGA[dL]A[dV]V[dV]W[dLys(Me3)]W[dLys(Me3)]W[dL]W-NHCH2CH2OH)	27			>10	>10	>10	>10	> 10	[c] HC50 is the peptide concentration required to cause 50% of haemoglobin leakage from human red blood cells compared to the lysis of same amount cells by 1% TritonX-100. No haemoglogin leakage was observed in the cases of 10, 14M, 10, 12M or 10, 12, 14M at the concentration range tested.	pEC50 ([5]; ATCC 19615): 5.90
CC(C)C[C@@H](NC(=O)[C@H](C)NC(=O)CNC(=O)[C@@H](NC=O)C(C)C)C(=O)N[C@@H](C)C(=O)N[C@@H](C(=O)N[C@H](C(=O)N[C@@H](C(=O)N[C@@H](Cc1c[nH]c2ccccc12)C(=O)N[C@H](CCCCN)C(=O)N[C@@H](Cc1c[nH]c2ccccc12)C(=O)N[C@H](CC(C)C)C(=O)N[C@@H](Cc1c[nH]c2ccccc12)C(=O)N[C@H](CC(C)C)C(=O)N[C@@H](Cc1c[nH]c2ccccc12)C(=O)NCCO)C(C)C)C(C)C)C(C)C (racemic) [gA-1, formyl-V-G-A-dL-A-dV-V-dV-W-dK-W-dL-W-dL-W-NHCH2CH2OH]										water solubility, fold higher than wild-type Gramicidin A (physchem): ~200 fold; MICs S. Aureus ([3]; ATCC 6538): 2.5 µM; MIC relative to wild-type Gramicidin A ([3]; S. Aureus): equivalent to that of wild-type Gramicidin A; MICs B. Subtilius ([4]; ATCC 663): 5 µM; MIC relative to wild-type Gramicidin A ([4]; B. subtilis): equivalent to that of wild-type Gramicidin A; HC50 (50% haemoglobin leakage relative to 1% TritonX-100) ([1]; red cells of human): 5~10 μM; KC50 (50% K+ ion leakage relative to 1% TritonX-100) [2]: 0.01 µM; peptide concentration for 50% K+ ion leakage, fold greater than wild-type Gramicidin A [2]: ~100 fold; apparent dissociation constant (Kd) / binding [6]: apparent Kd values close to that of gA-WT; apparent dissociation constant (Kd) / binding [7]: apparent Kd values close to that of gA-WT; Sat. Conc, Lys series [8]: 10 µM; MICs S. Pyogenes ([5]; ATCC 19615): 0.16 µM; MIC relative to wild-type Gramicidin A ([5]; S. Pyogenes): equivalent to that of wild-type Gramicidin A
CC(C)C[C@@H](NC(=O)[C@H](C)NC(=O)CNC(=O)[C@@H](NC=O)C(C)C)C(=O)N[C@@H](C)C(=O)N[C@@H](C(=O)N[C@H](C(=O)N[C@@H](C(=O)N[C@@H](Cc1c[nH]c2ccccc12)C(=O)N[C@H](CCCC[N+](C)(C)C)C(=O)N[C@@H](Cc1c[nH]c2ccccc12)C(=O)N[C@H](CCCC[N+](C)(C)C)C(=O)N[C@@H](Cc1c[nH]c2ccccc12)C(=O)N[C@H](CCCC[N+](C)(C)C)C(=O)N[C@@H](Cc1c[nH]c2ccccc12)C(=O)NCCO)C(C)C)C(C)C)C(C)C [10, 12, 14M] (For-VGA[dL]A[dV]V[dV]W[dLys(Me3)]W[dLys(Me3)]W[dLys(Me3)]W-NHCH2CH2OH)	55			>95	>95	>95	>95		[c] HC50 is the peptide concentration required to cause 50% of haemoglobin leakage from human red blood cells compared to the lysis of same amount cells by 1% TritonX-100. No haemoglogin leakage was observed in the cases of 10, 14M, 10, 12M or 10, 12, 14M at the concentration range tested.	
CC(C)C[C@@H](NC(=O)[C@H](C)NC(=O)CNC(=O)[C@@H](NC=O)C(C)C)C(=O)N[C@@H](C)C(=O)N[C@@H](C(=O)N[C@H](C(=O)N[C@@H](C(=O)N[C@@H](Cc1c[nH]c2ccccc12)C(=O)N[C@H](CC(C)C)C(=O)N[C@@H](Cc1c[nH]c2ccccc12)C(=O)N[C@H](CC(C)C)C(=O)N[C@@H](Cc1c[nH]c2ccccc12)C(=O)N[C@H](CCCC[N+](C)(C)C)C(=O)N[C@@H](Cc1c[nH]c2ccccc12)C(=O)NCCO)C(C)C)C(C)C)C(C)C [14M] (For-VGA[dL]A[dV]V[dV]W[dL]W[dL]W[dLys(Me3)]W-NHCH2CH2OH)	3.6	1.25 to 2.5	2.5	24	24	0.015	0.015	0.078		
CC(C)C[C@@H](NC(=O)[C@H](C)NC(=O)CNC(=O)[C@@H](NC=O)C(C)C)C(=O)N[C@@H](C)C(=O)N[C@@H](C(=O)N[C@H](C(=O)N[C@@H](C(=O)N[C@@H](Cc1c[nH]c2ccccc12)C(=O)N[C@H](CC(C)C)C(=O)N[C@@H](Cc1c[nH]c2ccccc12)C(=O)N[C@H](CCCC[N+](C)(C)C)C(=O)N[C@@H](Cc1c[nH]c2ccccc12)C(=O)N[C@H](CCCC[N+](C)(C)C)C(=O)N[C@@H](Cc1c[nH]c2ccccc12)C(=O)NCCO)C(C)C)C(C)C)C(C)C [1214MeK] (For-VGA[dL]A[dV]V[dV]W[dL]W[dLys(Me3)]W[dLys(Me3)]W-NHCH2CH2OH)										KC50 ([2]; Table 8): >10
CC(C)C[C@@H](NC(=O)[C@H](C)NC(=O)CNC(=O)[C@@H](NC=O)C(C)C)C(=O)N[C@@H](C)C(=O)N[C@@H](C(=O)N[C@H](C(=O)N[C@@H](C(=O)N[C@@H](Cc1c[nH]c2ccccc12)C(=O)N[C@H](CCCC[N+](C)(C)C)C(=O)N[C@@H](Cc1c[nH]c2ccccc12)C(=O)N[C@H](CC(C)C)C(=O)N[C@@H](Cc1c[nH]c2ccccc12)C(=O)N[C@H](CCCC[N+](C)(C)C)C(=O)N[C@@H](Cc1c[nH]c2ccccc12)C(=O)NCCO)C(C)C)C(C)C)C(C)C [10, 14M] (For-VGA[dL]A[dV]V[dV]W[dLys(Me3)]W[dL]W[dLys(Me3)]W-NHCH2CH2OH)	30	> 10	2.5	>24	>24	20	20	1.25	[c] HC50 is the peptide concentration required to cause 50% of haemoglobin leakage from human red blood cells compared to the lysis of same amount cells by 1% TritonX-100. No haemoglogin leakage was observed in the cases of 10, 14M, 10, 12M or 10, 12, 14M at the concentration range tested.	HC50 printed in the S. Aureus MIC cell ([3]; ATCC 6538): 1.25 µM

— patent US9243037B2, “Gramicidin a mutants that function as antibiotics with improved solubility and reduced toxicity” (Trustees of Boston College, priority 2011, dated 2016)
